Experiments:
Format in all cases: cell-based
[1] = molecular target: T1, KRAS G12V protein in SW900 cells (Homo sapiens, UniProt P01116, G12V); test: KRAS degradation assay (Western Blot) in SW900 cells; conditions: 24 h
T1 construct: endogenous in cells; host or cells: SW900
Summary of the method: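 Degradation of KRAS measured by Western blot after 24 h exposure to compound (0.03–3000 nM final). Values are DC50 and Dmax.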

[2] = test system: KRAS G12D mutant human lung cancer cell A427; test: 3D cell proliferation inhibition assay, A427; conditions: A-427, 168 h, 3D culture, 7 days, CTG
Excerpt: (§1) Test Example 6: 3D Cell Proliferation Inhibition Assay
(§2) The inhibitory effects of the compounds on 3D cell proliferation were investigated on KRAS G12C mutant human non-small cell lung cancer cell NCI-H358, KRAS G12D mutant human lung cancer cell A427, KRAS G12D mutant human gastric cancer cell AGS, KRAS G12D mutant human metastatic pancreatic cancer cell AsPc-1, KRAS G12V mutant human lung squamous carcinoma cell SW900, KRAS G12V mutant human colorectal cancer cell SW620, KRAS G13D mutant human colorectal cancer epithelial cell DLD-1, and KRAS WT human gastric cancer cell MKN1. The specific procedures were as follows:
(§3) 10 μL of each compound solution diluted in a gradient was added to corresponding wells of a 96-well low-adsorption microplate (PerkinElmer), so that the final concentrations of the test compounds in the reaction system were in a range of 10000-0.026 nM. The final concentration of DMSO was 0.2%. Then 90 µL of cells were correspondingly seeded into each well to achieve a cell density of 5×10^2 cells/well (the cell density of SW900 was 5×10^3 cells/well, and the cell density of MKN1 was 1×10^3 cells/well). In addition to test wells for the test compounds, both a DMSO control well and a medium control well were set, with the DMSO control well containing DMSO and cells and the medium well containing only a medium. After the sample loading, the 96-well low-adsorption microplate was incubated in an incubator at 37° C. with […] for 7 days. After 7 days, the microplate was taken out, and 100 μL of CTG reagent (Promega) was added to each well. The plate was incubated at room temperature for 60 m and read on a microplate reader EnVision by the chemiluminescence program. The inhibition rates of the compounds at each concentration were calculated using the formula for the percentage inhibition of cell proliferation: inhibition rate 00=(mean value of DMSO control group−single concentration reading value of compound)/(mean value of DMSO control group−mean value of medium control group)×100. Then non-linear curve fillings for logarithmic concentration-inhibition rate were performed by GraphPad Prism 8, and the IC50 values of the compounds were obtained (Table 6).

[3] = test system: KRAS G12D mutant human gastric cancer cell AGS; test: 3D cell proliferation inhibition assay, AGS; conditions: 168 h, 3D culture, 7 days, CTG
Excerpt: as §1, §2, §3

[4] = test system: KRAS G12D mutant human metastatic pancreatic cancer cell AsPc-1; test: 3D cell proliferation inhibition assay, AsPc-1; conditions: ASPC1, 168 h, 3D culture, 7 days, CTG
Summary of the method: (§4)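 Seven-day 3D growth at 37 °C in low-adsorption wells, 5×10^2 cells/well except MKN1 (1×10^3), final compound range 10000–0.026 nM in 0.2% DMSO. CTG luminescence read-out; percent inhibition set against DMSO and medium-only wells, IC50 by curve fitting.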

[5] = test system: KRAS G12C mutant human non-small cell lung cancer cell NCI-H358; test: 3D cell proliferation inhibition assay, NCI-H358; conditions: NCI-H358, 168 h, 3D culture, 7 days, CTG
Summary of the method: as §4

[6] = test system: KRAS G12V mutant human lung squamous carcinoma cell SW900; test: 3D cell proliferation inhibition assay, SW900; conditions: SW900, 168 h, 3D culture, 7 days, CTG
Excerpt: as §1, §2, §3

[7] = test system: KRAS WT human gastric cancer cell MKN1; test: 3D cell proliferation inhibition assay, MKN1; conditions: MKN-1, 168 h, 3D culture, 7 days, CTG
Excerpt: as §1, §2, §3

[8] = test system: KRAS G13D mutant human colorectal cancer epithelial cell DLD-1; test: 3D cell proliferation inhibition assay, DLD-1; conditions: DLD-1, 168 h, 3D culture, 7 days, CTG
Summary of the method: as §4

[9] = test system: KRAS G12V mutant human colorectal cancer cell SW620; test: 3D cell proliferation inhibition assay, SW620; conditions: SW-620, 168 h, 3D culture, 7 days, CTG
Summary of the method: as §4

T1 sequence (P01116 1-188 isoform P01116-2 G12V): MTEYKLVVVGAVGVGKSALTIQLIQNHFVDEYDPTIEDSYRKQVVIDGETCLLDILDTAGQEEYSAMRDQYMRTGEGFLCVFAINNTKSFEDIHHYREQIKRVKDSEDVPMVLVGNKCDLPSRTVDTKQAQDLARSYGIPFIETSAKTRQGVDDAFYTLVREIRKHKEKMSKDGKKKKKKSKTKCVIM

| Compound | DC50 [1] [nM] | Dmax [1] [%] | IC50 [2] [nM] | IC50 [3] [nM] | IC50 [4] [nM] | IC50 [5] [nM] | IC50 [6] [nM] | IC50 [7] [nM] | IC50 [8] [nM] | IC50 [9] [nM] |
| --- | --- | --- | --- | --- | --- | --- | --- | --- | --- | --- |
| CCc1cccc2cc(O)cc(-c3ccc4c(N5CCC[C@@](C)(O)C5)nc(OCC5(CN6CCN(CC7CCC8(CC7)CCN(C(=O)c7ccc(Cl)c(N9CCC(=O)NC9=O)c7)CC8)CC6)CC5)nc4c3F)c12 [Example 12, (R)-1-(2-chloro-5-(9-((4-((1-(((7-(8-ethyl-3-hydroxynaphthalen-1-yl)-8-fluoro-4-(3-hydroxy-3-methylpiperidin-1-yl)quinazolin-2-yl)oxy)methyl)cyclopropyl)methyl)piperazin-1-yl)methyl)-3-azaspiro[5.5]undecane-3-carbonyl)phenyl)dihydropyrimidine-2,4(1H,3H)-dione] | ≤ 50 | 80 to 100 | 100 to 500 | ≤ 50 | 100 to 500 | ≤ 50 | ≤ 50 | ≤ 50 | – | 15.3 |
| C#Cc1c(F)ccc2cc(O)cc(-c3ccc4c(N5CCC[C@@](C)(O)C5)nc(OCC5(CN6CCN(CC7CCC8(CC7)CCN(C(=O)c7ccc(OC)c(N9CCC(=O)NC9=O)c7)CC8)CC6)CC5)nc4c3F)c12 [Example 21, (R)-1-(5-(9-((4-((1-(((7-(8-ethynyl-7-fluoro-3-hydroxynaphthalen-1-yl)-8-fluoro-4-(3-hydroxy-3-methylpiperidin-1-yl)quinazolin-2-yl)oxy)methyl)cyclopropyl)methyl)piperazin-1-yl)methyl)-3-azaspiro[5.5]undecane-3-carbonyl)-2-methoxyphenyl)dihydropyrimidine-2,4(1H,3H)-dione] | ≤ 50 | 80 to 100 | 50 to 100 | ≤ 50 | ≤ 50 | 100 to 500 | ≤ 50 | ≤ 50 | – | 5.54 |
| C#Cc1cccc2cc(O)cc(-c3ccc4c(N5CCC[C@@](C)(O)C5)nc(OCC5(CN6CCN(CC7CCC8(CC7)CCN(C(=O)c7ccc(OC)c(N9CCC(=O)NC9=O)c7)CC8)CC6)CC5)nc4c3F)c12 [Example 24, (R)-1-(5-(9-((4-((1-(((7-(8-ethynyl-3-hydroxynaphthalen-1-yl)-8-fluoro-4-(3-hydroxy-3-methylpiperidin-1-yl)quinazolin-2-yl)oxy)methyl)cyclopropyl)methyl)piperazin-1-yl)methyl)-3-azaspiro[5.5]undecane-3-carbonyl)-2-methoxyphenyl)dihydropyrimidine-2,4(1H,3H)-dione] | ≤ 50 | 80 to 100 | 100 to 500 | 50 to 100 | ≤ 50 | 100 to 500 | ≤ 50 | ≤ 50 | – | 9.33 |
| C#Cc1c(F)ccc2cc(O)cc(-c3ccc4c(N5CCC[C@@](C)(O)C5)nc(OCC5(CN6CCC(CCOCC7CCN(C(=O)c8ccc(C)c(N9CCC(=O)NC9=O)c8)CC7)CC6)CC5)nc4c3F)c12 [Example 34, (R)-1-(5-(4-((2-(1-((1-(((7-(8-ethynyl-7-fluoro-3-hydroxynaphthalen-1-yl)-8-fluoro-4-(3-hydroxy-3-methylpiperidin-1-yl)quinazolin-2-yl)oxy)methyl)cyclopropyl)methyl)piperidin-4-yl)ethoxy)methyl)piperidine-1-carbonyl)-2-methylphenyl)dihydropyrimidine-2,4(1H,3H)-dione] | ≤ 50 | 80 to 100 | 100 to 500 | ≤ 50 | ≤ 50 | 50 to 100 | ≤ 50 | ≤ 50 | – | – |
| C#Cc1c(F)ccc2cc(O)cc(-c3ncc4c(N5CCC[C@@](C)(O)C5)nc(OCC5(CN6CCN(CC7CCC8(CC7)CCN(C(=O)c7ccc9c(c7)C(=O)N(C7CCC(=O)NC7=O)C9)CC8)CC6)CC5)nc4c3F)c12 (stereo partly drawn) [Example 35, 3-(6-(9-((4-((1-(((7-(8-ethynyl-7-fluoro-3-hydroxynaphthalen-1-yl)-8-fluoro-4-((R)-3-hydroxy-3-methylpiperidin-1-yl)pyrido[4,3-d]pyrimidin-2-yl)oxy)methyl)cyclopropyl)methyl)piperazin-1-yl)methyl)-3-azaspiro[5.5]undecane-3-carbonyl)-1-oxoisoindolin-2-yl)piperidine-2,6-dione] | ≤ 50 | 80 to 100 | 500 to 1000 | ≤ 50 | ≤ 50 | ≤ 50 | 100 to 500 | ≤ 50 | – | – |

Next, values leading:

| DC50 [1] [nM] | Dmax [1] [%] | IC50 [2] [nM] | IC50 [3] [nM] | IC50 [4] [nM] | IC50 [5] [nM] | IC50 [6] [nM] | IC50 [7] [nM] | IC50 [8] [nM] | IC50 [9] [nM] | Compound |
| --- | --- | --- | --- | --- | --- | --- | --- | --- | --- | --- |
| ≤ 50 | 80 to 100 | 100 to 500 | ≤ 50 | 50 to 100 | ≤ 50 | ≤ 50 | ≤ 50 | – | – | C#Cc1c(F)ccc2cc(O)cc(-c3ncc4c(N5CCC[C@@](C)(O)C5)nc(OCC5(CN6CCN(CCCC7CCN(C(=O)c8ccc(Cl)c(N9CCC(=O)NC9=O)c8)CC7)CC6)CC5)nc4c3F)c12 [Example 4, (R)-1-(2-chloro-5-(4-(3-(4-((1-(((7-(8-ethynyl-7-fluoro-3-hydroxynaphthalen-1-yl)-8-fluoro-4-(3-hydroxy-3-methylpiperidin-1-yl)pyrido[4,3-d]pyrimidin-2-yl)oxy)methyl)cyclopropyl)methyl)piperazin-1-yl)propyl)piperidine-1-carbonyl)phenyl)dihydropyrimidine-2,4(1H,3H)-dione] |
| ≤ 50 | 80 to 100 | ≤ 50 | ≤ 50 | ≤ 50 | ≤ 50 | 50 to 100 | ≤ 50 | ≤ 50 | – | CCc1c(F)ccc2cc(O)cc(-c3ncc4c(N5CCC[C@@](C)(O)C5)nc(OCC5(CN6CCC(CCOCC7CCN(C(=O)c8ccc(Cl)c(N9CCC(=O)NC9=O)c8)CC7)CC6)CC5)nc4c3F)c12 [Example 5, (R)-1-(2-chloro-5-(4-((2-(1-((1-(((7-(8-ethyl-7-fluoro-3-hydroxynaphthalen-1-yl)-8-fluoro-4-(3-hydroxy-3-methylpiperidin-1-yl)pyrido[4,3-d]pyrimidin-2-yl)oxy)methyl)cyclopropyl)methyl)piperidin-4-yl)ethoxy)methyl)piperidine-1-carbonyl)phenyl)dihydropyrimidine-2,4(1H,3H)-dione] |
| ≤ 50 | 80 to 100 | 50 to 100 | ≤ 50 | ≤ 50 | ≤ 50 | ≤ 50 | ≤ 50 | ≤ 50 | – | C#Cc1c(F)ccc2cc(O)cc(-c3ncc4c(N5CCC[C@@](C)(O)C5)nc(OCC5(CN6CCC(CCOCC7CCN(C(=O)c8ccc(Cl)c(N9CCC(=O)NC9=O)c8)CC7)CC6)CC5)nc4c3F)c12 [Example 8, (R)-1-(2-chloro-5-(4-((2-(1-((1-(((7-(8-ethynyl-7-fluoro-3-hydroxynaphthalen-1-yl)-8-fluoro-4-(3-hydroxy-3-methylpiperidin-1-yl)pyrido[4,3-d]pyrimidin-2-yl)oxy)methyl)cyclopropyl)methyl)piperidin-4-yl)ethoxy)methyl)piperidine-1-carbonyl)phenyl)dihydropyrimidine-2,4(1H,3H)-dione] |
